Data taken from PubChem BioAssay (NCI).
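Where inhibition never reached the appropriate level, the endpoint shown equals the highest concentration tested. Otherwise, values were interpolated linearly from a five-concentration, 48-hour dose response in 96-well plates. The concentration for full growth arrest is given as TGI.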

Experiments:
Test in all cases: DTP human tumour cell line panel, 48 h
MDA-N = test system: MDA-N
NCI-H226 lung = test system: NCI-H226 lung
U251 CNS = test system: U251 CNS
A549 NSCLC = test system: A549 NSCLC
SF-539 CNS = test system: SF-539 CNS
HCT-15 colon = test system: HCT-15 colon
SW-620 colon = test system: SW-620 colon
HL-60(TB) leukemia = test system: HL-60(TB) leukemia
BT-549 breast = test system: BT-549 breast
MCF7 breast = test system: MCF7 breast
LOX IMVI melanoma = test system: LOX IMVI melanoma
OVCAR-5 ovarian = test system: OVCAR-5 ovarian
SK-MEL-28 melanoma = test system: SK-MEL-28 melanoma
PC-3 prostate = test system: PC-3 prostate
HOP-62 NSCLC = test system: HOP-62 NSCLC
EKVX NSCLC = test system: EKVX NSCLC
NCI-H460 lung = test system: NCI-H460 lung
UO-31 renal = test system: UO-31 renal
UACC-257 melanoma = test system: UACC-257 melanoma
MDA-MB-435 = test system: MDA-MB-435
MALME-3M melanoma = test system: MALME-3M melanoma
KM12 colon = test system: KM12 colon
RXF 393 renal = test system: RXF 393 renal
COLO 205 colon = test system: COLO 205 colon
A498 renal = test system: A498 renal
HS 578T breast = test system: HS 578T breast
OVCAR-4 ovarian = test system: OVCAR-4 ovarian
MOLT-4 leukemia = test system: MOLT-4 leukemia
IGROV1 ovarian = test system: IGROV1 ovarian
HCC-2998 colon = test system: HCC-2998 colon
CAKI-1 renal = test system: CAKI-1 renal
K-562 leukemia = test system: K-562 leukemia
RPMI-8226 leukemia = test system: RPMI-8226 leukemia
OVCAR-8 ovarian = test system: OVCAR-8 ovarian
DU-145 prostate = test system: DU-145 prostate
SK-MEL-5 melanoma = test system: SK-MEL-5 melanoma
HOP-92 NSCLC = test system: HOP-92 NSCLC
ACHN renal = test system: ACHN renal
TK-10 renal = test system: TK-10 renal
NCI/ADR-RES ovarian = test system: NCI/ADR-RES ovarian
CCRF-CEM leukemia = test system: CCRF-CEM leukemia
786-0 renal = test system: 786-0 renal
MDA-MB-231 breast = test system: MDA-MB-231 breast
SN12C renal = test system: SN12C renal
SNB-75 CNS = test system: SNB-75 CNS
SF-268 CNS = test system: SF-268 CNS
SR leukemia = test system: SR leukemia
HCT-116 colon = test system: HCT-116 colon
UACC-62 melanoma = test system: UACC-62 melanoma
SK-OV-3 ovarian = test system: SK-OV-3 ovarian
M14 melanoma = test system: M14 melanoma
T-47D breast = test system: T-47D breast
HT29 colon = test system: HT29 colon
NCI-H522 lung = test system: NCI-H522 lung
NCI-H23 lung = test system: NCI-H23 lung
SNB-19 CNS = test system: SNB-19 CNS
SF-295 CNS = test system: SF-295 CNS
SK-MEL-2 melanoma = test system: SK-MEL-2 melanoma
OVCAR-3 ovarian = test system: OVCAR-3 ovarian

Measured: TGI

COc1ccc(N2C(=O)C3c4[nH]c5ccccc5c4C4CCC(c5ccccc5)CC4C3C2=O)cc1 (stereo not given)
> 44.9 µM: HCC-2998 colon
> 78.5 µM: PC-3 prostate
> 58.3 µM: BT-549 breast
> 49.5 µM: OVCAR-4 ovarian
> 78.1 µM: A549 NSCLC
21.5 µM: HS 578T breast
53 µM: CCRF-CEM leukemia
43.8 µM: SF-268 CNS
18.3 µM: MALME-3M melanoma
68.8 µM: IGROV1 ovarian
53.2 µM: SK-MEL-2 melanoma
7.4 µM: SF-539 CNS
> 34.8 µM: HL-60(TB) leukemia
> 51.1 µM: SF-295 CNS
97.5 µM: UACC-257 melanoma
> 51.7 µM: NCI-H23 lung
25.6 µM: RXF 393 renal
> 44 µM: NCI-H522 lung
> 41.3 µM: K-562 leukemia
> 43.1 µM: NCI-H460 lung
> 59.3 µM: NCI/ADR-RES ovarian
35.5 µM: TK-10 renal
> 81.5 µM: MDA-N
7.15 µM: SR leukemia
50.6 µM: A498 renal
43.2 µM: SNB-19 CNS
> 88.2 µM: UO-31 renal
> 54.1 µM: LOX IMVI melanoma
> 96.2 µM: SK-MEL-28 melanoma
> 34.9 µM: 786-0 renal
> 94.4 µM: M14 melanoma
54.8 µM: SK-OV-3 ovarian
41.5 µM: MDA-MB-231 breast
36.1 µM: CAKI-1 renal
61.8 µM: HOP-92 NSCLC
55.6 µM: EKVX NSCLC
> 68.4 µM: SN12C renal
> 78.2 µM: COLO 205 colon
21.1 µM: U251 CNS
50.3 µM: UACC-62 melanoma
47.9 µM: ACHN renal
19.1 µM: SNB-75 CNS
> 100 µM: HCT-15 colon | SW-620 colon | MCF7 breast | OVCAR-5 ovarian | MDA-MB-435 | KM12 colon | MOLT-4 leukemia | DU-145 prostate | HCT-116 colon | T-47D breast | HT29 colon | OVCAR-3 ovarian
37.2 µM: OVCAR-8 ovarian
78.6 µM: RPMI-8226 leukemia
> 87.8 µM: SK-MEL-5 melanoma
27.7 µM: HOP-62 NSCLC
> 96.7 µM: NCI-H226 lung

NCCc1c[nH]c2ccc(OC(=O)C(=O)O)cc12
23.2 µM: HL-60(TB) leukemia
> 100 µM: MDA-N | NCI-H226 lung | U251 CNS | A549 NSCLC | SF-539 CNS | HCT-15 colon | SW-620 colon | BT-549 breast | MCF7 breast | LOX IMVI melanoma | OVCAR-5 ovarian | SK-MEL-28 melanoma | PC-3 prostate | HOP-62 NSCLC | EKVX NSCLC | NCI-H460 lung | UO-31 renal | UACC-257 melanoma | MDA-MB-435 | MALME-3M melanoma | KM12 colon | RXF 393 renal | COLO 205 colon | A498 renal | HS 578T breast | OVCAR-4 ovarian | MOLT-4 leukemia | IGROV1 ovarian | HCC-2998 colon | CAKI-1 renal | K-562 leukemia | RPMI-8226 leukemia | OVCAR-8 ovarian | DU-145 prostate | SK-MEL-5 melanoma | HOP-92 NSCLC | ACHN renal | TK-10 renal | NCI/ADR-RES ovarian | CCRF-CEM leukemia | 786-0 renal | MDA-MB-231 breast | SN12C renal | SNB-75 CNS | SF-268 CNS | SR leukemia | HCT-116 colon | UACC-62 melanoma | SK-OV-3 ovarian | M14 melanoma | T-47D breast | HT29 colon | NCI-H522 lung | NCI-H23 lung | SNB-19 CNS | SF-295 CNS | SK-MEL-2 melanoma | OVCAR-3 ovarian

CCOC(=O)NC(Nc1ccc(OC(F)(F)F)cc1)(C(F)(F)F)C(F)(F)F
> 100 µM: MDA-N | NCI-H226 lung | U251 CNS | A549 NSCLC | SF-539 CNS | HCT-15 colon | SW-620 colon | HL-60(TB) leukemia | BT-549 breast | MCF7 breast | LOX IMVI melanoma | OVCAR-5 ovarian | SK-MEL-28 melanoma | PC-3 prostate | HOP-62 NSCLC | EKVX NSCLC | NCI-H460 lung | UO-31 renal | UACC-257 melanoma | MDA-MB-435 | MALME-3M melanoma | KM12 colon | RXF 393 renal | COLO 205 colon | A498 renal | HS 578T breast | MOLT-4 leukemia | IGROV1 ovarian | HCC-2998 colon | CAKI-1 renal | K-562 leukemia | RPMI-8226 leukemia | OVCAR-8 ovarian | DU-145 prostate | SK-MEL-5 melanoma | HOP-92 NSCLC | ACHN renal | TK-10 renal | NCI/ADR-RES ovarian | CCRF-CEM leukemia | 786-0 renal | MDA-MB-231 breast | SN12C renal | SNB-75 CNS | SF-268 CNS | SR leukemia | HCT-116 colon | UACC-62 melanoma | SK-OV-3 ovarian | M14 melanoma | T-47D breast | HT29 colon | NCI-H522 lung | NCI-H23 lung | SNB-19 CNS | SF-295 CNS | SK-MEL-2 melanoma | OVCAR-3 ovarian

Cc1cccc2c1CC(C1OC(=O)c3ccccc31)C2=O (stereo not given)
> 100 µM: MDA-N | NCI-H226 lung | U251 CNS | A549 NSCLC | SF-539 CNS | HCT-15 colon | SW-620 colon | HL-60(TB) leukemia | BT-549 breast | MCF7 breast | LOX IMVI melanoma | OVCAR-5 ovarian | SK-MEL-28 melanoma | PC-3 prostate | HOP-62 NSCLC | EKVX NSCLC | NCI-H460 lung | UO-31 renal | UACC-257 melanoma | MDA-MB-435 | MALME-3M melanoma | KM12 colon | RXF 393 renal | COLO 205 colon | A498 renal | HS 578T breast | OVCAR-4 ovarian | MOLT-4 leukemia | IGROV1 ovarian | HCC-2998 colon | CAKI-1 renal | K-562 leukemia | RPMI-8226 leukemia | OVCAR-8 ovarian | DU-145 prostate | SK-MEL-5 melanoma | HOP-92 NSCLC | ACHN renal | TK-10 renal | NCI/ADR-RES ovarian | CCRF-CEM leukemia | 786-0 renal | MDA-MB-231 breast | SN12C renal | SNB-75 CNS | SF-268 CNS | SR leukemia | HCT-116 colon | UACC-62 melanoma | SK-OV-3 ovarian | M14 melanoma | T-47D breast | HT29 colon | NCI-H522 lung | NCI-H23 lung | SNB-19 CNS | SF-295 CNS | SK-MEL-2 melanoma | OVCAR-3 ovarian
